US8106031B2, “Hydrolytically-resistant boron-containing therapeutics and methods of use” (Anacor Pharmaceuticals, Inc., priority 2006, dated 2012)
Converted amounts (≈) assume the structure as drawn. Read-outs that look alike come from different tables or passages of the source.

Key:
[1] = test system: Cryptococcus neoformans; experiment: MIC against C. neoformans (NCCLS broth dilution); type: cell-based; conditions: for Minimum inhibitory concentration, C. neoformans: Table 3, 1-hydroxy series (19); for MIC: Cryptococcus neoformans, read-out: Minimum inhibitory concentration, C. neoformans
Excerpt: (§1) To determine the antifungal activity of these compounds we screened for their minimum inhibitory concentrations (MIC) against the major dermatophytes that cause onychomycosis, T. rubrum and T. mentagrophytes, and against the yeasts and molds C. albicans, C. neoformans and A. fumigatus to test for their broad spectrum activity. The antifungal agent ciclopirox, currently in use for the topical treatment of onychomycosis, was used as a reference.
(§2) All MIC testing against Trichophyton rubrum, Trichophyton mentagrophytes, Candida albicans, Cryptococcus neoformans and Aspergillus fumigatus were determined following the National Committee for Clinical Laboratory Standards (NCCLS) guidelines for antimicrobial testing of yeasts and filamentous fungi.^i,ii
(§3) Two-fold serial dilutions of the test compounds were prepared in 96-well plates. […] Pfaller M A, Chaturvedi V, Espinel-Ingroff A, Ghannoum M A, Gosey L L, Odds F C, Rex J H, Rinaldi M G, Sheehan D J, Walsh T J, Warnock D W. NCCLS publication M27-A2—Reference Method for Broth Dilution Antifungal Susceptibility Testing of Yeasts; Approved Standard—Second Edition. […] Pfaller M A, Chaturvedi V, Espinel-Ingroff A, Ghannoum M A, Gosey L L, Odds F C, Rex J H, Rinaldi M G, Sheehan D J, Walsh T J, Warnock D W. NCCLS publication M38-A—Reference Method for Broth Dilution Antifungal Susceptibility Testing of Filamentous Fungi; Approved Standard.

[2] = test system: Candida albicans; experiment: MIC against C. albicans (NCCLS broth dilution); type: cell-based; conditions: for Minimum inhibitory concentration, C. albicans: Table 3, 1-hydroxy series (19); for MIC: Candida albicans, read-out: Minimum inhibitory concentration, C. albicans
Excerpt: as §1, §2, §3

[3] = test system: Trichophyton mentagrophytes; experiment: MIC against T. mentagrophytes (NCCLS broth dilution); type: cell-based; conditions: for Minimum inhibitory concentration, T. mentagrophytes: Table 3, 1-hydroxy series (19); for MIC: Trichophyton mentagrophytes, read-out: Minimum inhibitory concentration, T. mentagrophytes
Excerpt: as §1, §2, §3

[4] = test system: Aspergillus fumigatus; experiment: MIC against A. fumigatus (NCCLS broth dilution); type: cell-based; conditions: for Minimum inhibitory concentration, A. fumigatus: Table 3, 1-hydroxy series (19); for MIC: Aspergillus fumigatus, read-out: Minimum inhibitory concentration, A. fumigatus
Excerpt: as §1, §2, §3

[5] = test system: Trichophyton rubrum; experiment: MIC against T. rubrum (NCCLS broth dilution); type: cell-based; conditions: for Minimum inhibitory concentration, T. rubrum: Table 3, 1-hydroxy series (19); for MIC: Trichophyton rubrum, read-out: Minimum inhibitory concentration, T. rubrum
Excerpt: as §1, §2, §3

[6] = Table 1, over 90% reduction of growth, 24-168 h at 35° C.

Molecule	MIC ([1]; Table 2, 1-phenyl series (9)) [µg/mL]	MIC ([2]; Table 2, 1-phenyl series (9)) [µg/mL]	MIC ([3]; Table 2, 1-phenyl series (9)) [µg/mL]	MIC ([4]; Table 2, 1-phenyl series (9)) [µg/mL]	MIC ([5]; Table 2, 1-phenyl series (9)) [µg/mL]	melting point [°C]	other results
1,3-Dihydro-1-hydroxy-2,1-naphtho[2,1-d]oxaborole [19j]	–	–	–	–	–	–	Minimum inhibitory concentration, C. neoformans [1]: 32 µg/mL; Minimum inhibitory concentration, C. albicans [2]: 32 µg/mL; Minimum inhibitory concentration, T. mentagrophytes [3]: 2 µg/mL; Minimum inhibitory concentration, A. fumigatus [4]: 32 µg/mL; Minimum inhibitory concentration, T. rubrum [5]: 4 µg/mL
1,3-Dihydro-1-hydroxy-5-trifluoromethoxy-benzoxaborole [19i]	–	–	–	–	–	–	Minimum inhibitory concentration, C. neoformans [1]: >64 µg/mL; Minimum inhibitory concentration, C. albicans [2]: >64 µg/mL; Minimum inhibitory concentration, T. mentagrophytes [3]: 64 µg/mL; Minimum inhibitory concentration, A. fumigatus [4]: >64 µg/mL; Minimum inhibitory concentration, T. rubrum [5]: 64 µg/mL
Clc1cccc(B2OCc3ccccc32)c1 [9c, 1-(3-Chlorophenyl)-1,3-dihydro-2,1-benzoxaborole]	4 (≈ 17.5 µM)	8 (≈ 35 µM)	8 (≈ 35 µM)	8 (≈ 35 µM)	16 (≈ 70 µM)	–	–
Fc1cccc(B2OCc3ccccc32)c1 [9d, 1,3-Dihydro-1-(3-fluorophenyl)-2,1-benzoxaborole]	4 (≈ 18.9 µM)	4 (≈ 18.9 µM)	16 (≈ 75.5 µM)	8 (≈ 37.7 µM)	8 (≈ 37.7 µM)	–	–
Fc1ccc(B2OCc3ccccc32)cc1 [9e, 1,3-Dihydro-1-(4-fluorophenyl)-2,1-benzoxaborole]	2 (≈ 9.43 µM)	4 (≈ 18.9 µM)	4 (≈ 18.9 µM)	2 (≈ 9.43 µM)	8 (≈ 37.7 µM)	53 to 55	–
Fc1ccc2c(c1)COB2c1cccc(Cl)c1 [9f, 1-(3-Chlorophenyl)-1,3-dihydro-5-fluoro-2,1-benzoxaborole]	0.5 (≈ 2.03 µM)	0.25 (≈ 1.01 µM)	8 (≈ 32.5 µM)	2 (≈ 8.11 µM)	4 (≈ 16.2 µM)	112 to 114	–
Fc1cccc(B2OCc3cc(F)ccc32)c1 [9g, 1,3-Dihydro-5-fluoro-1-(3-fluorophenyl)-2,1-benzoxaborole]	1 (≈ 4.35 µM)	0.5 (≈ 2.17 µM)	2 (≈ 8.69 µM)	1 (≈ 4.35 µM)	1 (≈ 4.35 µM)	80 to 82	–
Fc1ccc(B2OCc3cc(F)ccc32)cc1 [9h, 1,3-Dihydro-5-fluoro-1-(4-fluorophenyl)-2,1-benzoxaborole]	1 (≈ 4.35 µM)	1 (≈ 4.35 µM)	4 (≈ 17.4 µM)	2 (≈ 8.69 µM)	4 (≈ 17.4 µM)	75 to 77	–
Cc1cccc(B2OCc3cc(F)ccc32)c1 [9i, 1,3-Dihydro-5-fluoro-1-(3-methylphenyl)-2,1-benzoxaborole]	0.5 (≈ 2.21 µM)	1 (≈ 4.42 µM)	4 (≈ 17.7 µM)	0.5 (≈ 2.21 µM)	2 (≈ 8.85 µM)	48 to 49	–
Cc1ccc(B2OCc3cc(F)ccc32)cc1 [9j, 1,3-Dihydro-5-fluoro-1-(4-methylphenyl)-2,1-benzoxaborole]	0.5 (≈ 2.21 µM)	0.5 (≈ 2.21 µM)	2 (≈ 8.85 µM)	0.5 (≈ 2.21 µM)	2 (≈ 8.85 µM)	48 to 49	–
C(=Cc1ccccc1)B1OCc2ccccc21 [10a, 1,3-Dihydro-1-styryl-2,1-benzoxaborole]	–	–	–	–	–	57 to 59	MIC [1, 6]: 4 µg/mL (≈ 18.2 µM); MIC [2, 6]: 2 µg/mL (≈ 9.09 µM); MIC [3, 6]: 8 µg/mL (≈ 36.4 µM); MIC [4, 6]: 4 µg/mL (≈ 18.2 µM); MIC [5, 6]: 8 µg/mL (≈ 36.4 µM)
OB1OCc2ccccc21 [19a, 1,3-Dihydro-1-hydroxy-2,1-benzoxaborole]	–	–	–	–	–	–	MIC [1]: 1 µg/mL (≈ 7.47 µM); MIC [2]: 2 µg/mL (≈ 14.9 µM); MIC [3]: 4 µg/mL (≈ 29.9 µM); MIC [4]: 2 µg/mL (≈ 14.9 µM); MIC [5]: 8 µg/mL (≈ 59.7 µM)
